We go through 29 compounds from patent US20240336606A1 (Suzhou Zelgen Biopharmaceuticals Co., Ltd., priority 2020, published 2024).

The target of the test is T1, binding of KRAS^G12C to SOS1 (Homo sapiens, UniProt Q07889).
T1 construct: Tag1 (unspecified)
T1 sequence (Q07889 1-1333): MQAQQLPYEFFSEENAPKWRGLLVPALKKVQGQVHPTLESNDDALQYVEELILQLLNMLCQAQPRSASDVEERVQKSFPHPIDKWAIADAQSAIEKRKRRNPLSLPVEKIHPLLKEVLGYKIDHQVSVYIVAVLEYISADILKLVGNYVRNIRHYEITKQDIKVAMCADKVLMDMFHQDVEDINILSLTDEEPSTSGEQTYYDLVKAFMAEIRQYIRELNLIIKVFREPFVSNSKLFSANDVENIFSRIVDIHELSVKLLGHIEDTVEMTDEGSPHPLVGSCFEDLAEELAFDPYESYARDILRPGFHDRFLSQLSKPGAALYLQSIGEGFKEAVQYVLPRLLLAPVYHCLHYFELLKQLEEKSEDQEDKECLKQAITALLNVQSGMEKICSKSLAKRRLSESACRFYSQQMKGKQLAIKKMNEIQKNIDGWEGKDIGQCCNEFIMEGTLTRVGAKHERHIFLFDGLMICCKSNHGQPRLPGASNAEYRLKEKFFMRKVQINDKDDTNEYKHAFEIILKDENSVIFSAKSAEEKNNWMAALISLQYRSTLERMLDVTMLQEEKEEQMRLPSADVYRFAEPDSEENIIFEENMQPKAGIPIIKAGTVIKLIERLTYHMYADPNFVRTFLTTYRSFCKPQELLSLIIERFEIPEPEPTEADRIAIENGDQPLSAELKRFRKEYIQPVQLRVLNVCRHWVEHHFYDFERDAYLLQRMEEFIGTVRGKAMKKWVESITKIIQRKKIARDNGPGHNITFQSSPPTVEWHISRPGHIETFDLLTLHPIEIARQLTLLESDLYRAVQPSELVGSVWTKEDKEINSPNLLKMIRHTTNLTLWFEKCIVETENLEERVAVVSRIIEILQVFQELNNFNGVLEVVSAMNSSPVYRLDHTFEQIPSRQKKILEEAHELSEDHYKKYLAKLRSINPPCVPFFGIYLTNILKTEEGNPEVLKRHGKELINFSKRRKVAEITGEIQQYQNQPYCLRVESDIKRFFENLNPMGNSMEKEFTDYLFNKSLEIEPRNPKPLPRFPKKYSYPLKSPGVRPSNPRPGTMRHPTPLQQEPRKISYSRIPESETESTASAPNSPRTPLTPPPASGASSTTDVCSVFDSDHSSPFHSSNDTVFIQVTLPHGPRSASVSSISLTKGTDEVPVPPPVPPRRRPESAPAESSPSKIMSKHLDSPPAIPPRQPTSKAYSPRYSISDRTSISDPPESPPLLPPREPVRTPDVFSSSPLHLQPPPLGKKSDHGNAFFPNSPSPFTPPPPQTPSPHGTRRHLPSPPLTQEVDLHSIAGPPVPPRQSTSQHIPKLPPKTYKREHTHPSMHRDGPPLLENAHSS
The test can be described thus: Inhibition of the binding of KRAS^G12C to SOS1. The conditions noted are these: Tag1-SOS1 / Tag2-KRAS^G12C, 2 h incubation at room temperature; read-out: IC50 (nM), inhibitory activity on the binding of KRAS^G12C to SOS1. Here is the method: • (1) Gradient dilution of the test compounds: 10 mM mother solution (dissolved in 100% DMSO) was added to a 384-well test plate, the final content of DMSO being 0.25%.
(2) 5 μL of Tag1-SOS1 solution was added to the test plate, and 5 μL of dilution buffer was added to the control group.
(3) 5 μL of Tag2-KRAS^G12C solution was added to the test plate.
(4) 10 μL of Anti-Tag1-Tb3+ and Anti-Tag2-XL665 detection solution were added to the test plate. The plate was centrifuged at 1000 rpm for 1 min and incubated at room temperature for 2 h.
(6) The IC50 values for the compounds were finally calculated using GraphPad Prism software, and a curve was fit and plotted.
The inhibitory activity of the compounds of the examples of the present invention on the binding of KRAS^G12C enzyme to SOS1 is shown in Table 1.
Consider `COc1cc2nc(C)nc(N[C@H](C)c3cc(N)cc(C(F)(F)F)c3)c2cc1OCC1(C(C)OC)CC1` (single isomer, unassigned) [Example 65A], for which the IC50 (in general, the concentration that inhibits the measured activity by half) was found to be 18 nM.

For `COc1cc2nc(C)nc(N[C@H](C)c3cc(N)cc(C(F)(F)F)c3)c2cc1OCC1(C(C)OC)CC1` (single isomer, unassigned) [Example 65B], the IC50 was 7.3 nM. In the case of `COc1cc2nc(C)nc(N[C@H](C)c3cccc(C(F)(F)C(C)(C)O)c3F)c2cc1OC[C@@H]1CCCN1C` [Example 1], the concentration for half-maximal inhibition (IC50) turned out to be 4.6 nM. As for `COc1cc2nc(C)nc(N[C@H](C)c3cc(N)cc(C(F)(F)F)c3)c2cc1OC[C@@H]1CCCN1C` [Example 2], the half-inhibitory concentration (IC50) is 8.5 nM.

With `COc1cc2nc(C)nc(N[C@H](C)c3cc(N)cc(C(F)(F)F)c3)c2cc1OC[C@@H]1CCC(=O)N1C` [Example 6, (S)-5-(((4-(((R)-1-(3-amino-5-(trifluoromethyl)phenyl)ethyl)amino)-7-methoxy-2-methylquinazolin-6-yl)oxy)methyl)-1-methylpyrrolin-2-one], the half-inhibitory concentration (IC50) amounted to 13 nM. On to `COc1cc2nc(C)nc(N[C@H](C)c3cc(N)cc(C(F)(F)F)c3)c2cc1OCCOC1CC1` [Example 7, (R)—N-(1-(3-amino-5-(trifluoromethyl)phenyl)ethyl)-6-(2-cyclopropoxy)-7-methoxy-2-meth ylquinazolin-4-amine], for which the IC50 is 3.3 nM. For the compound `COc1cc2nc(C)nc(N[C@H](C)c3cc(N)cc(C(F)(F)F)c3)c2cc1OCCN(C)C1CC1` [Example 8], the concentration for half-maximal inhibition (IC50) worked out at 1.9 nM. Regarding `COc1cc2nc(C)nc(N[C@H](C)c3cccc(C(F)(F)C(C)(C)O)c3F)c2cc1OCCN(C)CC1CCC1` [Example 9], the IC50 turned out to be 3.4 nM.

Consider `COc1cc2nc(C)nc(N[C@H](C)c3cc(N)cc(C(F)(F)F)c3)c2cc1OCCN(C)CC1CCC1` [Example 10], for which the 50% inhibitory concentration (IC50) worked out at 2.9 nM. As for `COc1cc2nc(C)nc(N[C@H](C)c3cc(N)cc(C(F)(F)F)c3)c2cc1OCC1(CN(C)C)CC1` [Example 11, (R)—N-(1-(3-amino-5-(trifluoromethyl)phenyl)ethyl)-6-((1-((dimethylamino)methyl)cyclopropyl)methoxy)-7-methoxy-2-methylauinazolin-4-amine], the IC50 is 3.6 nM. As for `COc1cc2nc(C)nc(N[C@H](C)c3cccc(C(F)(F)C(C)(C)O)c3F)c2cc1OCC1(CN(C)C)CC1` [Example 12], the 50% inhibitory concentration (IC50) worked out at 8.3 nM.

With `COc1cc2nc(C)nc(N[C@H](C)c3cc(N)cc(C(F)(F)F)c3)c2cc1OCCN(C)S(C)(=O)=O` [Example 13], the IC50 turned out to be 2.5 nM.

`COc1cc2nc(C)nc(N[C@H](C)c3cc(N)cc(C(F)(F)F)c3)c2cc1OC[C@@H]1CCCN1C(C)=O` [Example 14]: the 50% inhibitory concentration (IC50) came to 16 nM.

`COc1cc2nc(C)nc(N[C@H](C)c3cc(N)cc(C(F)(F)F)c3)c2cc1OCC1(CN2CCOCC2)CC1` [Example 15, (R)—N-(1-(3-amino-5-(trifluoromethyl)phenyl)ethyl)-7-methoxy-2-methyl-6-((1-(morpholinylmethyl)cyclopropyl)methoxy)quinazolin-4-amine]: the IC50 was found to be 6.9 nM.

As for `COc1cc2nc(C)nc(N[C@H](C)c3cccc(C(F)(F)F)c3F)c2cc1OC[C@@H]1CCCN1C(=O)OC(C)(C)C` [Example 16], the IC50 amounted to 1090 nM.

Consider `COc1cc2nc(C)nc(N[C@H](C)c3cccc(C(F)(F)F)c3F)c2cc1OC[C@@H]1CCCN1` [Example 17, N—((R)-1-(2-Fluoro-3-(trifluoromethyl)phenyl)ethyl)-7-methoxy-2-methyl-6-(((S)-pyrrolin-2-yl)methoxy)quinazolin-4-amine], for which the IC50 turned out to be 70 nM. Consider `COc1cc2nc(C)nc(N[C@H](C)c3cccc(C(F)(F)F)c3F)c2cc1OC[C@@H]1CCCN1C` [Example 18, N—((R)-1-(2-fluoro-3-(trifluoromethyl)phenyl)ethyl)-7-methoxy-2-methyl-6-(((S)-1-methylpyrrolin-2-yl)methoxy)quinazolin-4-amine], for which the IC50 stood at 36 nM. The value for `COc1cc2nc(C)nc(N[C@H](C)c3cccc(C(F)(F)C(C)(C)O)c3F)c2cc1OCCN(C)CC1CC(F)(F)C1` [Example 19] was 9.4 nM. With `COc1cc2nc(C)nc(N[C@H](C)c3cccc(C(F)(F)F)c3F)c2cc1OC[C@@H]1CCCN1S(C)(=O)=O` [Example 20, N—((R)-1-(2-fluoro-3-(trifluoromethyl)phenyl)ethyl)-7-methoxy-2-methyl-6-(((S)-1-(methylsulfonyl)pyrrolidin-2-yl)methoxy)quinazolin-4-amine], the IC50 was found to be 121 nM. Turning to `COc1cc2nc(C)nc(N[C@H](C)c3cc(N)cc(C(F)(F)F)c3)c2cc1OCCN(C)CC1(F)CC1` [Example 21, (R)—N-(1-(3-amino-5-(trifluoromethyl)phenyl)ethyl)-6-(2-(((1-fluorocyclopropyl)methyl)(methyl)amino)ethoxy)-7-methoxy-2-methylquinazolin-4-amine], the IC50 turned out to be 4.7 nM. In the case of `COc1cc2nc(C)nc(N[C@H](C)c3cc(N)cc(C(F)(F)F)c3)c2cc1OCCN(C)CC1CC(F)(F)C1` [Example 22, (R)—N-(1-(3-amino-5-(trifluoromethyl)phenyl)ethyl)-6-(2-(((3,3-difluorocyclobutyl)methyl)(methyl)amino)ethoxy)-7-methoxy-2-methylquinazolin-4-amine], the half-inhibitory concentration (IC50) was determined as 7 nM. As for `COc1cc2nc(C)nc(N[C@H](C)c3cccc(C(F)(F)C(C)(C)O)c3F)c2cc1OC[C@H]1CNCCO1` [Example 23], the half-inhibitory concentration (IC50) was determined as 7.9 nM.

In the case of `COc1cc2nc(C)nc(N[C@H](C)c3cccc(C(F)(F)C(C)(C)O)c3F)c2cc1OC[C@@H]1CNCCO1` [Example 24], the IC50 is 7.7 nM.

With `COc1cc2nc(C)nc(N[C@H](C)c3cccc(C(F)(F)C(C)(C)O)c3F)c2cc1OC[C@@H]1CN(C)CCO1` [Example 25], the IC50 came out at 3.9 nM. Consider `COc1cc2nc(C)nc(N[C@H](C)c3cccc(C(F)(F)C(C)(C)O)c3F)c2cc1OC[C@@H]1COCCO1` [Example 26, 1-(3-((R)-1-((6-(((S)-1,4-Dioxan-2-yl)methoxy)-7-methoxy-2-methylquinazolin-4-yl)amino)ethyl)-2-fluorophenyl)-1,1-difluoro-2-methylpropan-2-ol], for which the half-inhibitory concentration (IC50) came out at 9.2 nM. In the case of `COc1cc2nc(C)nc(N[C@H](C)c3cccc(C(F)(F)C(C)(C)O)c3F)c2cc1OC[C@H]1COCCO1` [Example 27, 1-(3-((R)-1-((6-(((R)-1,4-Dioxan-2-yl)methoxy)-7-methoxy-2-methylquinazolin-4-yl)amino)ethyl)-2-fluorophenyl)-1,1-difluoro-2-methylpropan-2-ol], the IC50 was found to be 8.5 nM. For `COc1cc2nc(C)nc(N[C@H](C)c3cc(N)cc(C(F)(F)F)c3)c2cc1OC[C@@H]1COCCO1` [Example 28, 6-(((S)-1,4-Dioxan-2-yl)methoxy)-N—((R)-1-(3-amino-5-(trifluoromethyl)phenyl)ethyl)-7-m ethoxy-2-methylquinazolin-4-amine], the IC50 came out at 7.9 nM. Take `COc1cc2nc(C)nc(N[C@H](C)c3cccc(C(F)(F)C(C)(C)O)c3F)c2cc1OC[C@@H]1CN(S(C)(=O)=O)CCO1` [Example 29]: the concentration for half-maximal inhibition (IC50) was determined as 4.7 nM.

For `COc1cc2nc(C)nc(N[C@H](C)c3cc(N)cc(C(F)(F)F)c3)c2cc1OC[C@@H]1CCCN1S(C)(=O)=O` [Example 32, N—((R)-1-(3-amino-5-(trifluoromethyl)phenyl)ethyl)-7-methoxy-2-methyl-6-(((S)-1-(methylsulfonyl)pyrrolidin-2-yl)methoxy)quinazolin-4-amine], the IC50 came to 31 nM.
